# From patent US20240325451A1, “METHODS OF INDUCING ORGAN TRANSPLANTATION IMMUNE TOLERANCE AND ASSOCIATED COMPOSITIONS AND METHODS” (CITY OF HOPE, priority 2023, published 2024)
# Test system: donor-type and host-type T, B and myeloid cells
# Experiment: Mixed chimerism status by flow cytometry
# Conditions: PB and SPL of Foxp3DTR MCs
substance,measurement,value
diphtheria toxin [DT],MC status before and after treatment,did not have significant impact
